{
  "source": "patent US11766397B2",
  "about": "“Bioactive compositions comprising ficus serum fracton and methods to reduce the appearance of skin hyperpigmentation” (ISP INVESTMENTS LLC, priority 2010, dated 2023)",
  "tested_on": "facial hyperpigmented spots in humans",
  "assay": "In vivo testing for hyperpigmented spot reduction and melanin evenness (split face, vehicle controlled)",
  "parameters": "species or system human",
  "conditions": "for Melanin Evenness vs Vehicle / NC2SAF (spot area fraction) vs Vehicle: twice daily facial application",
  "method": "A 9 week in-vivo study was conducted using a round robin, vehicle controlled, split face design including a 1 week normalization period with 270 subjects. The 270 subjects were screened according to inclusion/exclusion criteria which included the following:\n• Has hyperpigmented spots around cheek and/or periorbital area on both sides of the face. • Has at least 1 hyperpigmented spot of 8-10 mm diameter, 4 spots of 4-6 mm or 10 spots of 2-3 mm diameter (sun spots., freckles, or melasma spots) or • equivalent spot area in the cheek area on each side of their face. • Is willing to refrain from sun exposure by using supplied UV lotion and physical UV blocks, such as a hat, to avoid facial sunburn, tanning or wind burn.\n• Has been diagnosed as having atopy, eczema, psoriasis, or other chronic skin diseases. • Has obvious signs of facial skin disease (e.g., more than 5 pimples, areas of red scaling skin, superficial thin blood vessels, etc.). • Has significant areas of discoloration or scarring on the face. • Has more than 3 prominent moles (<3 mm) on the face.\nTwo hundred and seventy subjects were recruited for the study. Approximately 60 subjects dropped during the course of the study. Each subject received two coded test formulations for twice daily application to each half of the face. Images of the facial treatment sites were captured at baseline (week 0), and after 4 and 8 weeks of treatment and analyzed for changes to skin color and spot size and color. The product formulations included a vehicle control, the Vehicle+0.55% FSF, and the vehicle+5% vitamin B3 compound (Niacinamide).\nNoncontact spectrophotometric intracutaneous analysis (SiaScopy, Astron Clinica, UK) was used to collect and analyze the subject images. The method used a digital camera (e.g., Fuji S2 digital SLR) as a […] and a flash lighting source (e.g., Sigma Super flash light source) to recover facial chromophore information. A cross polarized filter was placed in front of the camera and the lighting source to eliminate specular reflection.\nChromophore mapping of the concentration and distribution of eumelanin (melanin) and oxyhaemoglobin produces grayscale concentration maps of each of these chromophores. Image analysis software, such as Optimas 6.5, can be used to select a region of interest in each chromophore map from which mean grayscale values and spot area fraction are calculated. Spot area fraction refers to total area occupied by melanin spots as a percentage of the whole region of interest. A description of one type of chromophore mapping can be found in EP 1,810,614 and “The Distribution of Melanin in Skin Determined In Vivo”, British Journal of Dermatology, 2007, pp 620-628.",
  "data": [
    {"compound": "NC(=O)c1cccnc1", "note": "[Niacinamide]", "values": [
      {"measurement": "Melanin Evenness vs Vehicle", "setting": "4 weeks", "value": "ns (ns = not significant (p > 0.3))"},
      {"measurement": "NC2SAF (spot area fraction) vs Vehicle", "setting": "4 weeks", "value": "as"},
      {"measurement": "Melanin Evenness vs Vehicle", "setting": "8 weeks", "value": "sig (sig = significant (p < 0.1))"},
      {"measurement": "NC2SAF (spot area fraction) vs Vehicle", "setting": "8 weeks", "value": "sig (sig = significant (p < 0.1))"},
      {"measurement": "reducing hyperpigmented spots", "setting": "After 8 weeks", "value": "best performer"}
    ]}
  ]
}
